This is an account of results in patent US9226950B2, “Method and composition for treating diabetes mellitus” (National Dong Hwa University, priority 2013, dated 2016).

Assay [1] concerns S961-induced hyperglycemic mice (DM mice). The assay can be described thus: Oral glucose tolerance test (OGTT) in S961-induced hyperglycemic mice. It counts as in vivo, C57BL/6 mouse. The conditions noted are these: D-glucose 2 g/kg. The protocol:
Animal experiments were approved by the National Dong-Hwa University Animal Ethics Committee and were used according to the “Guide for the Care and Use of Laboratory Animals” of National Dong-Hwa University. The C57BL/6 mouse were obtained National Laboratory Animal Center (Taipei, Taiwan) and kept at controlled environmental conditions with room temperature (22±2° C.) and humidity (50±10%). The 12 hr light (0600 am-1800 pm) and 12 hr dark cycle was maintained throughout the study. Mice had free access to food and water and maintained on a standard laboratory diet (containing carbohydrates: 60%, proteins: 28%, lipids: 12%, and vitamins: 3%).
The 8 weeks old male C57 BL/6 mice after fasting 12 hr were used in this test. The mice were orally administered (p.o.) with tetracosanol (dissolved in PEG and EtOH, 25 mg/kg Bwt) or Metformin (100 mg/kg Bwt) for 3 hr. To investigate the effect of tetracosanol on the DM mice, the mice were intraperitoneally injected (i.p.) with S961 (50 nmol/kg Bwt) to induce hyperglycemia, prior to the administration of D-glucose (2 g/kg Bwt, p.o.). At approximately the 0, 30, 60, 90, and 120 min., the blood of each mouse was sampled by venipuncture from the tail vein for the determination of blood glucose. Blood glucose was immediately determined by the glucose oxidase method using glucose analyzer (Accu-Chek, Roche).
To investigate the glycemic control effect of tetracosanol on the hyperglycemic mice, hyperglycemic mice were induced by insulin receptor antagonist-S961. The mice of each group were treated with or without Metformin (Met) as positive control, or treated with or without tetracosanol (Tet). Then, all the groups were administered with D-glucose (2 g/kg Bwt) (n=6 in each group). The tetracosanol for glycemic control was confirmed by OGTT.
8 weeks old male C57 BL/6 mice after fasting 12 hr were employed in this study. […] The blood glucose was determined by the glucose oxidase method using glucose analyzer (Accu-Chek, Roche). […]

A further assay relates to AKT. The assay can be described thus: Phosphorylation of AKT on Thr308 in L6 cells, Western blot. Conditions: FIG. 1(b). It counts as cell-based, rat. The protocol: […] muscle myoblast cells (L6) was a generous gift from Professor Hitoshi Ashida's Lab. (Kobe University, Kobe, Japan). The cells were grown and maintained in α-minimal essential medium (α-MEM, 12000022, GIBCO, CA, USA) containing 10% fetal bovine serum (FBS, GIBCO) and 1% penicillin streptomycin (GIBCO) in a cell culture incubator with 5% CO2 at 37° C. Prior to the following experiments, the cells were seeded and cultured at a density of 8×10^3 cells per well in 96-well plates or 2.5×10^5 cells per well in 6-well plates. After the myoblasts achieved 80% confluence, the cells were incubated for 5 days in the α-MEM supplemented with 2% FBS to induce differentiation to myotubes.
The L6 cells were fully differentiated with α-MEM supplemented with 2% FBS for 5 days to myotubes. The cells were washed twice with PBS containing 0.1% BSA and subsequently incubated α-MEM containing 0.25% BSA with or without 100 nM of S961, and then treated with or without 100 μM of Tetracosanol for 90 min. Then, the cells were treated with or without 10 μM of insulin for 30 min. Finally, the cells were collected and washed twice in KRH buffer, then lysed in ice-cold RIPA buffer for 60 min. After centrifugation at 12,000×g for 30 min. at 4° C., the supernatant was kept at −80° C. until use. The levels of the proteins including phospho-AKT (Thr308), AKT, phospho-AMPK (Thr172), and AMPK (Cell Signaling) were detected and evaluated by Western blot with primary antibody.
The cells after treatments were collected and washed twice in cold KRH buffer, and then lysed in ice-cold RIPA buffer incubation at 4° C. for 60 min. After centrifugation at 12,000×g for 30 min at 4° C., the supernatant was kept and quantified by Bradford protein assay (Bio-Rad, Hercules, Calif., USA). The proteins were separated using sodium dodecyl sulfate polyacrylamide gel electrophoresis (SDS-PAGE) and subsequently transferred to PVDF (Perkin Elmer Life Sciences, Boston, Mass., USA) membrane. […] The signals were monitored using Western Lightning™ Plus-ECL (Perkin Elmer Life Sciences) and the PVDF membrane was exposed to Luminescent image analyzer (LAS)-3000 (Fujifilm, Minato, Tokyo, Japan). Acquired data were analyzed and compared the difference among treatments.
The differentiated L6 cells were incubated with 100 μM of tetracosanol (Tet) at 37° C. for 90 min, and then treated 10 μM of insulin (Ins) at 37° C. for 5 or 30 min. The cell lysates were separated by SDS-PAGE and blotted 5 min for phospho-Insr on Tyr1158, 1162, and 1163 (Insr, 100 kDa), and phospho-AKT on Thr308 protein level was measured at 30 min in Western blot analysis.

Take `CCCCCCCCCCCCCCCCCCCCCCCCO` [tetracosanol]: the “blood glucose change in OGTT” value in assay [1] (DM mice (S961), p.o., comparison with metformin, FIG. 6(a)) is “even better than metformin”; in assay [1] (tetracosanol 25 mg/kg Bwt p.o. versus Metformin 100 mg/kg Bwt, S961 50 nmol/kg i.p., FIG. 5(a)), “profile similar to the treatment with metformin”. In addition, the “AUC of the blood glucose change in OGTT” value in assay [1] (tetracosanol 25 mg/kg Bwt p.o., DM mice (S961) and normal mice (Con), FIG. 5(b)) is reported as “good efficacy in glycemic control”. Moreover, the “phospho-AKT on Thr 308” value in the assay with AKT (100 μM tetracosanol (Tet) alone, 90 min) is “did not”; in the assay with AKT (insulin plus both S961 and tetracosanol (Ins+S961+Tet)) it was “induced the phospho-AKT on Thr 308”; in the assay on AKT (insulin plus tetracosanol (Ins+Tet): 100 μM tetracosanol 90 min, then 10 μM insulin 30 min), “induced the phospho-AKT on Thr 308”.
